Among the data in US8586550B2, “Thiazole derivatives as SGLT2 inhibitors and pharmaceutical composition comprising same” (Green Cross Corporation, priority 2010, dated 2013) are IC50 values, retold here.

SMILES strings stand for the structures. pIC50: −log10 of the molar value.

This test addresses T1, Human SGLT2 (hSGLT2) (Homo sapiens, UniProt P31639).
T1 construct: expressed in transfected cells
T1 sequence (P31639 1-672): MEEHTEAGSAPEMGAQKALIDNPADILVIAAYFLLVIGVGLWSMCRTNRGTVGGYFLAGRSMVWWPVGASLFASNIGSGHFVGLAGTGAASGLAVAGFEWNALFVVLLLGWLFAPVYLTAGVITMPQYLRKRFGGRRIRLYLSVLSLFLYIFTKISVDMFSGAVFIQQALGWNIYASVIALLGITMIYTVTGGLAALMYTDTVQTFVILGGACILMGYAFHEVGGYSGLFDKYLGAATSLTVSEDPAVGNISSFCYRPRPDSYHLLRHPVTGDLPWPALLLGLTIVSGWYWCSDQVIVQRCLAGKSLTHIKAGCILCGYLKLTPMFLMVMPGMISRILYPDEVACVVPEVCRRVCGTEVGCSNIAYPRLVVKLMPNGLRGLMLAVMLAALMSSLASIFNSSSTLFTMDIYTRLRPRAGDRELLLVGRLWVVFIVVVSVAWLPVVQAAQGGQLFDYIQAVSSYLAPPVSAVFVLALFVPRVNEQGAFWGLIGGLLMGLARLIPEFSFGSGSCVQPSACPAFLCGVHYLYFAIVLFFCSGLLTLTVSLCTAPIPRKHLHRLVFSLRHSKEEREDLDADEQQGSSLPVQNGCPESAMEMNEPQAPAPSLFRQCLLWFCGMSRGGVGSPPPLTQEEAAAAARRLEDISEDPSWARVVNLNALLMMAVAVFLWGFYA
The test can be described thus: Sodium-dependent glucose transport (14C-AMG uptake) assay in CHO cells stably expressing hSGLT2. Format: cell-based. Conditions: CHO cells expressing hSGLT2, 14C-AMG uptake, 37° C. for 2 h; single determinations; read-out: hSGLT2 Inhibitory Activity IC50. In a few lines:
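Uptake of 14C-α-methyl-D-glucopyranoside (8 μM labeled, 1 mM unlabeled, NaCl buffer pH 7.4) measured over 2 h at 37 °C with inhibitor in hSGLT2-transfected CHO cells after 10 min choline-buffer pretreatment. Radioactivity by liquid scintillation; IC50 from nonlinear regression.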
One may read the pIC50 as −log10 of the IC50, conventionally taken in molar units. For the compound `Cc1ccc(-c2ncc(Cc3cc([C@@H]4O[C@H](CO)[C@@H](O)[C@H](O)[C@H]4O)ccc3Cl)s2)s1` [Example 188, (2S,3R,4R,5S,6R)-2-(4-Chloro-3-((2-(5-methylthiophen-2-yl)thiazol-5-yl)methyl)phenyl)-6-(hydroxymethyl)tetrahydro-2H-pyran-3,4,5-triol], the pIC50 is 7.98.
As for `O[C@@H]1[C@@H](O)[C@H](c2ccc(Cl)c(Cc3ncc(-c4ccco4)s3)c2)O[C@H](CF)[C@H]1O` [Example 145, (2S,3R,4R,5S,6S)-2-(4-Chloro-3-((5-(furan-2-yl)thiazol-2-yl)methyl)phenyl)-6-(fluoromethyl)-tetrahydro-2H-pyran-3,4,5-triol], the figure is 7.97; as for `OC[C@H]1O[C@@H](c2ccc(Cl)c(Cc3ncc(-c4cccs4)s3)c2)[C@H](O)[C@@H](O)[C@@H]1O` [Example 7, (2S,3R,4R,5S,6R)-2-(4-Chloro-3-((5-(thiophen-2-yl)thiazol-2-yl)methyl)phenyl)-6-(hydroxymethyl)tetrahydro-2H-pyran-3,4,5-triol], 8.49; as for `CCCc1cnc(Cc2cn([C@@H]3O[C@H](CO)[C@@H](O)[C@H](O)[C@H]3O)c3ccccc23)s1` [Example 134, (2R,3S,4S,5R,6R)-2-(Hydroxymethyl)-6-(3((5-propylthiazol-2-yl)methyl)-1H-indol-1-yl)tetrahydro-2H-pyran-3,4,5-triol], 6.97.
With `CCCSc1ncc(Cc2cc([C@@H]3O[C@H](CO)[C@@H](O)[C@H](O)[C@H]3O)ccc2Cl)s1` [Example 198, (2S,3R,4R,5S,6R)-2-(4-Chloro-3-((2-(propylthio)thiazol-5-yl)methyl)phenyl)-6-(hydroxymethyl)tetrahydro-2H-pyran-3,4,5-triol], the pIC50 was 7.81.
Take `OC[C@H]1O[C@@H](c2cn(Cc3ncc(-c4ccccc4)s3)c3ccccc23)[C@H](O)[C@@H](O)[C@@H]1O` [Example 137, (2R,3S,4R,5R,6S)-2-(Hydroxymethyl)-6-(1-((5-phenylthiazol-2-yl)methyl)-1H-indol-3-yl)-tetrahydro-2H-pyran-3,4,5-triol]: the pIC50 is 6.91.
As to `CCOc1cnc(Cc2cc([C@@H]3O[C@H](CO)[C@@H](O)[C@H](O)[C@H]3O)c3ccccc3c2OC)s1` [Example 103, (2S,3R,4R,5S,6R)-2-(3-((5-Ethoxythiazol-2-yl)methyl)-4-methoxynaphthalen-1-yl)-6-(hydroxymethyl)-tetrahydro-2H-pyran-3,4,5-triol], the pIC50 was 7.29.
For the compound `Cc1ccc([C@@H]2O[C@H](CO)[C@@H](O)[C@H](O)[C@H]2O)cc1Cc1ncc(Cc2ccccc2)s1` [Example 39, (2S,3R,4R,5S,6R)-2-(3-((5-Benzylthiazol-2-yl)methyl)-4-methylphenyl)-6-(hydroxymethyl)tetrahydro-2H-pyran-3,4,5-triol], the pIC50 was 6.75.
With `OC[C@H]1O[C@@H](c2cc(Cc3ncc(-c4cccs4)s3)c(Cl)cc2Cl)[C@H](O)[C@@H](O)[C@@H]1O` [Example 61, (2S,3R,4R,5S,6R)-2-(2,4-Dichloro-5-((5-(thiophen-2-yl)thiazol-2-yl)methyl)phenyl)-6-(hydroxymethyl)tetrahydro-2H-pyran-3,4,5-triol], the pIC50 is 8.32.
As to `CCCc1cnc(Cc2cc([C@@H]3O[C@H](CO)[C@@H](O)[C@H](O)[C@H]3O)c(Cl)cc2Cl)s1` [Example 65, (2S,3R,4R,5S,6R)-2-(2,4-Dichloro-5-((5-propylthiazol-2-yl)methyl)phenyl)-6-(hydroxymethyl)tetrahydro-2H-pyran-3,4,5-triol], the pIC50 was 7.36.
With `OCCOc1cc(Cl)c(Cc2ncc(-c3ccco3)s2)cc1[C@@H]1O[C@H](CO)[C@@H](O)[C@H](O)[C@H]1O` [Example 121, (2S,3R,4R,5S,6R)-2-(4-Chloro-5-((5-(furan-2-yl)thiazol-2-yl)methyl)-2-(2-hydroxyethoxy)phenyl)-6-(hydroxymethyl)tetrahydro-2H-pyran-3,4,5-triol], the pIC50 was 8.82.
For the compound `OC[C@H]1O[C@@H](c2ccc(Cl)c(Cc3ncc(-c4ccccn4)s3)c2)[C@H](O)[C@@H](O)[C@@H]1O` [Example 10, (2S,3R,4R,5S,6R)-2-(4-Chloro-3-((5-(pyridin-2-yl)thiazol-2-yl)methyl)phenyl)-6-(hydroxymethyl)-tetrahydro-2H-pyran-3,4,5-triol], the pIC50 is 8.16.
On to `OC[C@H]1O[C@@H](c2cc(Cc3ncc(-c4cccs4)s3)c(O)c3ccccc23)[C@H](O)[C@@H](O)[C@@H]1O` [Example 124, (2S,3R,4R,5S,6R)-2-(4-Hydroxy-3-((5-(thiophen-2-yl)thiazol-2-yl)methyl)naphthalen-1-yl)-6-(hydroxymethyl)-tetrahydro-2H-pyran-3,4,5-triol], for which the pIC50 was 8.10.
Regarding `OC[C@H]1O[C@@H](c2cccc(Cc3ncc(-c4ccco4)s3)c2)[C@H](O)[C@@H](O)[C@@H]1O` [Example 111, (2S,3R,4R,5S,6R)-2-(3-((5-(Furan-2-yl)thiazol-2-yl)methyl)phenyl)-6-(hydroxymethyl)-tetrahydro-2H-pyran-3,4,5-triol], the pIC50 was 7.65.
Regarding `OC[C@H]1O[C@@H](c2cc(Cc3ncc(-c4ccoc4)s3)c(Cl)cc2Cl)[C@H](O)[C@@H](O)[C@@H]1O` [Example 60, (2S,3R,4R,5S,6R)-2-(2,4-Dichloro-5-((5-(furan-3-yl)thiazol-2-yl)methyl)phenyl)-6-(hydroxymethyl)tetrahydro-2H-pyran-3,4,5-triol], the pIC50 was 7.88.
Then `OC[C@H]1O[C@@H](c2cc(Cc3ncc(-c4cccs4)s3)cc3ccccc23)[C@H](O)[C@@H](O)[C@@H]1O` [Example 94, (2R,3S,4R,5R,6S)-2-(Hydroxymethyl)-6-(3-((5-(thiophen-2-yl)thiazol-2-yl)methyl)naphthalen-1-yl)tetrahydro-2H-pyran-3,4,5-triol], with 8.22.
As to `CCCSc1cnc(Cc2cc([C@@H]3O[C@H](CO)[C@@H](O)[C@H](O)[C@H]3O)ccc2Cl)s1` [Example 25, (2S,3R,4R,5S,6R)-2-(4-Chloro-3-((5-(propylthio)thiazol-2-yl)methyl)phenyl)-6-(hydroxymethyl)-tetrahydro-2H-pyran-3,4,5-triol], the pIC50 is 7.25.
As for `CCSc1cnc(Cc2cc([C@@H]3O[C@H](CO)[C@@H](O)[C@H](O)[C@H]3O)ccc2Cl)s1` [Example 24, (2S,3R,4R,5S,6R)-2-(4-Chloro-3-((5-(ethylthio)thiazol-2-yl)methyl)phenyl)-6-(hydroxymethyl)-tetrahydro-2H-pyran-3,4,5-triol], the figure is 7.51; as for `CCCCc1cnc(Cc2cn([C@@H]3O[C@H](CO)[C@@H](O)[C@H](O)[C@H]3O)c3ccccc23)s1` [Example 135, (2R,3R,4S,5S,6R)-2-(3((5-Butylthiazol-2-yl)methyl)-1H-indol-1-yl)-6-(hydroxymethyl)tetrahydro-2H-pyran-3,4,5-triol], 6.91; as for `CCCc1cnc(Cc2cc([C@@H]3O[C@H](CO)C(O)[C@H](O)[C@H]3O)c3ccccc3c2OC)s1` (stereo in doubt) [Example 99, (2R,3R,4R,5R,6S)-2-(Hydroxymethyl)-6-(4-methoxy-3-((5-propylthiazol-2-yl)methyl)naphthalen-1-yl)-tetrahydro-2H-pyran-3,4,5-triol], 7.72.
Consider `CCCCCSc1cnc(Cc2cc([C@@H]3O[C@H](CO)[C@@H](O)[C@H](O)[C@H]3O)ccc2Cl)s1` [Example 27, (2S,3R,4R,5S,6R)-2-(4-Chloro-3-((5-(pentylthio)thiazol-2-yl)methyl)phenyl)-6-(hydroxymethyl)-tetrahydro-2H-pyran-3,4,5-triol], for which the pIC50 was 7.72.
Regarding `OC[C@H]1O[C@@H](c2cc(Cc3ncc(-c4ccccc4)s3)c(O)c3ccccc23)[C@H](O)[C@@H](O)[C@@H]1O` [Example 125, (2S,3R,4R,5S,6R)-2-(4-Hydroxy-3-((5-phenylthiazol-2-yl)methyl)naphthalen-1-yl)-6-(hydroxymethyl)-tetrahydro-2H-pyran-3,4,5-triol], the pIC50 is 7.51.
As for `OC[C@H]1O[C@@H](c2cc(Cc3ncc(-c4ccco4)s3)c(Cl)cc2Cl)[C@H](O)[C@@H](O)[C@@H]1O` [Example 59, (2S,3R,4R,5S,6R)-2-(2,4-Dichloro-5-((5-(furan-2-yl)thiazol-2-yl)methyl)phenyl)-6-(hydroxymethyl)tetrahydro-2H-pyran-3,4,5-triol], the pIC50 was 8.27.
Take `CCOC(=O)OC[C@H]1O[C@@H](c2ccc(Cl)c(Cc3ncc(-c4ccsc4)s3)c2)[C@H](O)[C@@H](O)[C@@H]1O` [Example 165, ((2R,3S,4R,5R,6S)-6-(4-Chloro-3-((5-(thiophen-3-yl)thiazol-2-yl)methyl)phenyl)-3,4,5-trihydroxytetrahydro-2H-pyran-2-yl)methyl ethyl carbonate]: the pIC50 was 8.13.
